The IC50 is the concentration that inhibits the measured activity by half.

This experiment addresses T1, rat CB-1 receptor (Rattus norvegicus, UniProt P20272).
T1 construct: The tissue obtained from the brain of SD rats was homogenized; from tissue; host or cells: SD rat brain (membrane pellet of homogenate)
In words: rat CB-1 receptor binding protocol with [3H]CP-55940 on SD rat brain tissue. As to conditions: [3H]CP-55940 displacement, SD rat brain homogenate, 30° C., 60 min; read-out: IC50 (binding affinity for CB1 receptor).

T1 sequence (P20272 whole entry): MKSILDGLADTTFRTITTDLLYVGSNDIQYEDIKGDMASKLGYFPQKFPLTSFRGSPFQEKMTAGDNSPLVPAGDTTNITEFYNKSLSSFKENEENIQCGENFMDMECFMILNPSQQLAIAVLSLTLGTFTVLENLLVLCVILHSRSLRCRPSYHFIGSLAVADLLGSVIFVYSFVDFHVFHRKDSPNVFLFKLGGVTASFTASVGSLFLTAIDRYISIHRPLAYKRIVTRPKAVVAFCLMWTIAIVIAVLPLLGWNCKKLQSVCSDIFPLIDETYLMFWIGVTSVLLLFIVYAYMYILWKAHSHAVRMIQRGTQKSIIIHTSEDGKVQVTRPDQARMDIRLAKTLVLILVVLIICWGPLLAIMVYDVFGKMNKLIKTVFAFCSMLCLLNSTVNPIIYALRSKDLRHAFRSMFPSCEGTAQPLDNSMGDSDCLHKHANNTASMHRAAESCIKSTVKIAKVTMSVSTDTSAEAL
Procedure: The tissue obtained from the brain of SD rats was homogenized with a Dounce homogenate system in TME (50 mM Tris, 3 mM MgCl2 and 1 mM EDTA, pH 7.4) at 4° C., and the homogenate was centrifuged at 48,000 g for 30 min. at 4° C. The pellet was resuspended in 5 ml of TME and the suspension was divided into aliquots and stored at −70° C. until its use in the following assay.
The tissue concentrations were determined by Bradford protein analysis, and 148 μl of brain tissue of the required concentration was added to the plate. The plate was covered and placed in a 30° C. incubator for 60 min, and then transformed on GF/B filtermat pretreated in polyethylenimine (PEI) using a cell harvester. Each filter was washed five times and dried at 60° C. for 1 hr. Then, the degree of radioactivity retained by the filter was measured using Wallac Microbeta™ (PerkinElmer Life Sciences, Inc., Massachusetts, U.S.A.) and the activity of the compound for inhibiting CB1 receptor was determined therefrom.

`Cc1c(C(=O)NC(=O)OCc2ccccc2)nn(-c2ccc(Cl)cc2Cl)c1-c1ccc(Cl)cc1` [Example 23, Benzyl 5-(4-chlorophenyl)-1-(2,4-dichlorophenyl)-4-methyl-1H-pyrazole-3-carbonylcarbamate]: the IC50 is 17.8 nM. The result for `CCCCCC(=O)NC(=O)c1nn(-c2ccc(Cl)cc2Cl)c(-c2ccc(Cl)cc2)c1C` [Example 8, 5-(4-Chlorophenyl)-1-(2,4-dichlorophenyl)-N-hexanoyl-4-methyl-1H-pyrazole-3-carboxamide] reads 33.5 nM. In the case of `Cc1c(C(=O)NCNC(=O)C2CCCCC2)nn(-c2ccc(Cl)cc2Cl)c1-c1ccc(Cl)cc1` [Example 35, 5-(4-Chlorophenyl)-N-(cyclohexanecarboxamidomethyl)-1-(2,4-dichlorophenyl)-4-methyl-1H-pyrazole-3-carboxamide] it was 49.2 nM.

In the case of `Cc1c(C(=O)NCNC(=O)C(C)C)nn(-c2ccc(Cl)cc2Cl)c1-c1ccc(Cl)cc1` [Example 37, 5-(4-Chlorophenyl)-1-(2,4-dichlorophenyl)-N-(isobutyramidomethyl)-4-methyl-1H-pyrazole-3-carboxamide], the half-inhibitory concentration (IC50) amounted to 951 nM. In the case of `Cc1c(C(=O)NC(=O)C(C)(C)C)nn(-c2ccc(Cl)cc2Cl)c1-c1ccc(Cl)cc1` [Example 10, 5-(4-Chlorophenyl)-1-(2,4-dichlorophenyl)-4-methyl-N-pivaloyl-1H-pyrazole-3-carboxamide] it was 32.7 nM; in that of `Cc1c(C(=O)NC(=O)C2CCCCC2)nn(-c2ccc(Cl)cc2Cl)c1-c1ccc(Cl)cc1` [Example 5, 5-(4-Chlorophenyl)-N-(cyclohexanecarbonyl)-1-(2,4-dichlorophenyl)-4-methyl-1H-pyrazole-3-carboxamide], 30.4 nM; in that of `CCCCOC(=O)NC(=O)c1nn(-c2ccc(Cl)cc2Cl)c(-c2ccc(Cl)cc2)c1C` [Example 24, Butyl 5-(4-chlorophenyl)-1-(2,4-dichlorophenyl)-4-methyl-1H-pyrazole-3-carbonylcarbamate], 99.7 nM. The result for `Cc1c(C(=O)NC(=O)OC(C)(C)C)nn(-c2ccc(Cl)cc2Cl)c1-c1ccc(Cl)cc1` [Example 25, tert-Butyl 5-(4-chlorophenyl)-1-(2,4-dichlorophenyl)-4-methyl-1H-pyrazole-3-carbonylcarbamate] reads 82.5 nM. Consider `CCC(C)(C)C(=O)NC(=O)c1nc(-c2ccc(Cl)cc2Cl)n(-c2ccc(Cl)cc2)c1C` [Example 30, 1-(4-Chlorophenyl)-2-(2,4-dichlorophenyl)-N-(2,2-dimethylbutanoyl)-5-methyl-1H-imidazole-4-carboxamide], for which the concentration for half-maximal inhibition (IC50) is 39.9 nM.

Regarding `CCC(C)(C)C(=O)NC(=O)c1nn(-c2ccc(Cl)cc2Cl)c(-c2ccc(Cl)cc2)c1C` [Example 11, 5-(4-Chlorophenyl)-1-(2,4-dichlorophenyl)-N-(2,2-dimethylbutanoyl)-4-methyl-1H-pyrazole-3-carboxamide], the IC50 turned out to be 21.2 nM.

In the case of `Cc1c(C(=O)NC(=O)C2CCC2)nn(-c2ccc(Cl)cc2Cl)c1-c1ccc(Cl)cc1` [Example 3, 5-(4-Chlorophenyl)-N-(cyclobutanecarbonyl)-1-(2,4-dichlorophenyl)-4-methyl-1H-pyrazole-3-carboxamide], the concentration for half-maximal inhibition (IC50) was 127 nM. The result for `CCCCCCCC(=O)NCNC(=O)c1nn(-c2ccc(Cl)cc2Cl)c(-c2ccc(Cl)cc2)c1C` [Example 33, 5-(4-Chlorophenyl)-1-(2,4-dichlorophenyl)-4-methyl-N-(octanamidomethyl)-1H-pyrazole-3-carboxamide] reads 1180 nM. In the case of `CCC(CC)C(=O)NC(=O)c1nc(-c2ccc(Cl)cc2Cl)n(-c2ccc(Cl)cc2)c1C` [Example 27, 1-(4-Chlorophenyl)-2-(2,4-dichlorophenyl)-N-(2-ethylbutanoyl)-5-methyl-1H-imidazole-4-carboxamide], the IC50 worked out at 20 nM. Take `CCCCCCNC(=O)NC(=O)c1nn(-c2ccc(Cl)cc2Cl)c(-c2ccc(Cl)cc2)c1C` [Example 15, 5-(4-Chlorophenyl)-1-(2,4-dichlorophenyl)-N-(hexylcarbamoyl)-4-methyl-1H-pyrazole-3-carboxamide]: the IC50 came to 138 nM.

These data come from patent US20080262066A1, “Azole Derivatives as Cannabinoid CB1 Receptor Antagonists” (Green Cross Corporation, priority 2007, published 2008).
